Data on 2 compounds can be found in PMC12095047, “Transport of phenoxyacetic acid herbicides by PIN-FORMED auxin transporters” (Nature Plants, 2025).

Molecules are shown by their SMILES. Values joined by “and” are separate entries in the source; they are usually repeats but may differ in a detail not shown here. Identical values can stand only once.

One series concerns the target T1, A. thaliana PIN3 (Arabidopsis thaliana, UniProt Q9S7Z8).
T1 construct: expressed in transfected cells; host or cells: Xenopus oocytes (cRNA injection)
T1 sequence (Q9S7Z8 1-640): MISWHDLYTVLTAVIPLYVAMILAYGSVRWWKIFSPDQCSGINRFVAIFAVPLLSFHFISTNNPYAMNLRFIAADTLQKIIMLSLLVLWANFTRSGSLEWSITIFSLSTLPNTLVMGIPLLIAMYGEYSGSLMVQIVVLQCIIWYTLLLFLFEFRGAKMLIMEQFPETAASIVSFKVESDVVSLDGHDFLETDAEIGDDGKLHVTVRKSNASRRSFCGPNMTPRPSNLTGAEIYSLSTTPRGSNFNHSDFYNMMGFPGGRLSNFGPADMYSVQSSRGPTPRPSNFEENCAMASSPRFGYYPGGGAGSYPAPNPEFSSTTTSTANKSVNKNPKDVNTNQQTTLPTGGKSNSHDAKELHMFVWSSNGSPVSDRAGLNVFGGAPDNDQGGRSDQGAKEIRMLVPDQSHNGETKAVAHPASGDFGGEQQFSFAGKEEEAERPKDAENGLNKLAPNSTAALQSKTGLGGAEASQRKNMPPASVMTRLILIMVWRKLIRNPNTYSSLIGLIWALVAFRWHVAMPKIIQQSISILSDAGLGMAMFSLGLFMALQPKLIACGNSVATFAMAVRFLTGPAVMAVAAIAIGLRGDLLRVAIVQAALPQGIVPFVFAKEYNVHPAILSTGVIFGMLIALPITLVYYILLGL
Nature of the series: Xenopus oocyte efflux assay, PIN3 with or without PID kinase. The following applies: for Rel. 2,4-D transport rate (% exported/min): replicates; for Rel. 2,4-D transport rate: PIN3 oocytes, individual experiments. Format: cell-based. As for the experimental part: Oocyte efflux experiments were carried out as described[12],[20],[26]. Briefly, oocytes were injected with 150 ng transporter complementary RNA without or with 75 ng kinase cRNA. [^3H]-IAA (25 Ci mmol^−1) and [^3H]-4-CPA (37.7 Ci mmol^−1) was purchased from RC Tritec. [^3H]-2,4-D (25 Ci mmol^−1) was purchased from ARC. Oocytes were injected with substrate to reach an internal concentration of 1 µM, corresponding to 100%. Residual radioactivity was determined for each individual oocyte by liquid scintillation counting after the time points indicated and are expressed relative to the initial 100%. Each time point represents the mean and s.e. of ten oocytes. To calculate the relative transport rate in percentage per minute, linear regression was performed. Each data point in Fig. 1b,c and Extended Data Fig. 2b,e represents the transport rate of one biological replicate using oocytes collected from different Xenopus females.

For series [1], the system named is A. thaliana stem segments of wild type. Description: Arabidopsis stem transport assay, Col-0 wild type.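 On CPM: Segments numbered apical to basal with Segment 1 nearest the apical end.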 The following applies: for CPM: WT. Format: in vivo, Arabidopsis thaliana. As for the experimental part:
Arabidopsis stem transport assays were carried out as described. Briefly, 2 cm stem sections were cut above the rosette of 5-week-old plants and placed in inverted orientation into auxin transport buffer containing 500 pM IAA, 1% (wt/vol) sucrose, 5 mM 2-(N-morpholino)ethanesulfonic acid, pH 5.5 with or without 100 μM NPA. After 2 h the stems were transferred into auxin transport buffer containing 417 nM [^3H]-IAA or [^3H]-2,4-D as a substrate in the absence and presence of NPA. After 2 h, 5 mm segments were dissected, and the substrate was quantified using a liquid scintillation counter.

The next series addresses T2, PIN8 (Arabidopsis thaliana, UniProt Q9LFP6).
T2 construct: made in house
T2 sequence (Q9LFP6 1-367): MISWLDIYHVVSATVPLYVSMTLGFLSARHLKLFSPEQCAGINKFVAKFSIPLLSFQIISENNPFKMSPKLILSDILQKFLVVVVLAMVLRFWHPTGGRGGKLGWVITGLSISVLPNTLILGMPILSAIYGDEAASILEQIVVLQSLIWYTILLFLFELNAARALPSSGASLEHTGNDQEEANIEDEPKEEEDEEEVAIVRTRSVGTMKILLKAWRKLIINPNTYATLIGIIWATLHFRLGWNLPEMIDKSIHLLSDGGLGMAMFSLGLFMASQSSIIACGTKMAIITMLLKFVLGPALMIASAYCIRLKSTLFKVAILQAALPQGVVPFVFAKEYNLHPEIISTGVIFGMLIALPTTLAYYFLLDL
On the set-up: method as in PMID 35768502. The following applies: read-out: IAA binding affinity KD, previously described; cited from earlier work.

For series [2] the following is noted: cited from earlier work.

Take `O=C(O)Cc1c[nH]c2ccccc12` [IAA, indole-3-acetic acid]: the “Rel. IAA transport rate (% exported/min)” value at A. thaliana PIN3 (PID +, NPA -, single experiments) is 5.59 % exported/min and 5.28 % exported/min and 4.145 % exported/min. The CPM in series [1] (sheet EDF2H, + NPA, Segment 1, single stems) is 342 CPM and 190 CPM and 344 CPM and 366 CPM and 333 CPM; in series [1] (sheet EDF2H, + NPA, Segment 2, single stems), 98 CPM and 93 CPM and 124 CPM and 114 CPM; in series [1] (sheet EDF2H, + NPA, Segment 3, single stems), 125 CPM and 94 CPM and 137 CPM and 146 CPM and 104 CPM; in series [1] (sheet EDF2H, - NPA, Segment 3, single stems), 181 CPM and 109 CPM and 111 CPM and 125 CPM and 156 CPM. For the same compound, the Kd at PIN8 was 40 ± 15 µM. Moreover, the “acid dissociation constant pKa” value in series [2] is 4.7.

Regarding `O=C(O)COc1ccc(Cl)cc1Cl` [2,4-D, 2,4-dichlorophenoxyacetic acid], the “Rel. 2,4-D transport rate (% exported/min)” value at A. thaliana PIN3 (PID +) was 2.469 % exported/min and 1.491 % exported/min and 1.857 % exported/min; on A. thaliana PIN3 (PID -) it was 1.104 % exported/min and -0.5881 % exported/min and -1.06 % exported/min. In addition, the “export rate relative to the IAA transport rate” value at A. thaliana PIN3 (PIN3 activated by PID kinase, NPA-sensitive) is on record as “about half of the IAA transport rate”. The “Rel. 2,4-D transport rate” value on A. thaliana PIN3 (PID +, NPA + (10 μM)) was 0.306 % exported/min and 0.1671 % exported/min and -0.318 % exported/min; at A. thaliana PIN3 (PID +, NPA -), 2.085 % exported/min and 2.202 % exported/min and 1.56 % exported/min; on A. thaliana PIN3 (PID -, NPA + (10 μM)), 0.4736 % exported/min and -0.2953 % exported/min and -0.2713 % exported/min; at A. thaliana PIN3 (PID -, NPA -) it was -0.1695 % exported/min and 0.4151 % exported/min and -0.6296 % exported/min. In addition, the CPM is 33 CPM and 25 CPM and 26 CPM and 39 CPM in series [1] (sheet EDF2I, + NPA, Segment 2, single stems); 20 CPM and 21 CPM and 33 CPM and 30 CPM in series [1] (sheet EDF2I, + NPA, Segment 3, single stems); 76 CPM and 115 CPM and 77 CPM and 107 CPM in series [1] (sheet EDF2I, - NPA, Segment 1, single stems); 35 CPM and 37 CPM and 34 CPM and 29 CPM and 30 CPM in series [1] (sheet EDF2I, - NPA, Segment 2, single stems); 29 CPM and 37 CPM and 35 CPM and 26 CPM and 28 CPM in series [1] (sheet EDF2I, - NPA, Segment 3, single stems). In series [1] (wild-type plants), the “transport in stem segments, lower than IAA transport” value is reported as “about 20 fold”. Moreover, in series [2], the “acid dissociation constant pKa” value is reported as 2.73.
